Structures can show the parent of a compound that is named as a salt.
What was measured:
physchem = conditions: 25 °C, thermodynamic from solid
[1] = hygroscopicity (moisture sorption/desorption); type: physicochemical; conditions: 25° C., ambient and high humidity conditions
Method: The data was obtained using a VTI Model MB-300W Moisture balance with relative humidity levels from 10% to 90% in increments of 10%. The maximum equilibration time at each humidity was set at 4 hours.
As used herein, the term “nonhygroscopic”, in reference to a compound, preferably denotes no measurable weight gain per weight of compound as measured above.
This was an unexpected result, because other salt forms of CA4P free acid are hygroscopic under similar conditions. Variable relative humidity-X-ray diffraction (“RH-XRD”) experiments have shown that the powder pattern remains unchanged on exposure to different humidities at 25° C.

[2] = solid-state chemical stability; type: physicochemical; conditions: ambient and accelerated conditions of temperature and humidity
[3] = system: murine L1210 lymphocytic leukemia cell line; conditions: NCI murine L1210; cited from earlier work
[4] = cited from earlier work
microtubulin assembly = conditions: cited from earlier work
[5] = system: murine P338 lymphocytic leukemia cell line; conditions: NCI murine P338; cited from earlier work

Structure (SMILES) | solubility (physchem; pH 4.8, water) [mg/mL] | solubility (physchem; pH 8.2, aqueous buffer) [mg/mL] | hygroscopicity [1] | chemical stability in the solid-state [2] | activity against L1210 lymphocytic leukemia cell line [3] | solubility in water [4] | inhibition of microtubulin assembly (microtubulin assembly) | activity against P338 lymphocytic leukemia cell line [5]
COc1ccc(/C=C\c2cc(OC)c(OC)c(OC)c2)cc1OP(=O)(O)O [CA4P mono TRIS salt, CA4P mono-tromethamine salt] | 3.37 | 191 | practically nonhygroscopic | good chemical stability | – | – | – | –
COc1ccc(/C=C\c2cc(OC)c(OC)c(OC)c2)cc1O [combretastatin A-4] | – | – | – | – | significantly active | essentially insoluble in water | potent inhibitor | significantly active

— patent US7524832B2, “Combretastatin A-4 phosphate prodrug mono-and di-organic amine salts, mono-and di-amino acid salts and mono-and di-amino acid ester salts” (priority 2000, dated 2009)
